ChEMBL document CHEMBL1201862, “PubChem BioAssay data set” (2004)
Calls of active or inactive are those of the source.

What was measured:
[1] = target: Voltage-dependent T-type calcium channel subunit alpha-1H (Homo sapiens, UniProt O95180); assay type: functional;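 further: channel activity triggered by adding a high calcium stimulation buffer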
Genome polyprotein = Genome polyprotein (dengue virus type 2, UniProt P29990); experiment: flavivirus cap methylation enzyme inhibition – biochemical, confirmation dose response, primary screen (AID 588689); assay type: functional
[2] = target: T1, Polyadenylate-binding protein 1 (Homo sapiens, UniProt P11940); experiment: MLLE binding blockers, Cy5 peptide tracer – biochemical, fluorescence polarization, Cy5-PAM2 peptide, secondary, miRNA deadenylation inhibitor project, dose response (AID 602260); assay type: functional; settings: read-out: IC50_Mean
[3] = target: T1, Polyadenylate-binding protein 1; experiment: MLLE domain peptide-binding blockers, IC50 – biochemical, fluorescence polarization, FITC-PAM2 peptide, dose response (AID 602259); assay type: functional; settings: read-out: IC50_Mean
[4] = target: T2, Rac GTPase-activating protein 1 (Homo sapiens, UniProt Q9H0H5); experiment: blockers of MgcRacGAP-driven Rac1 GTP hydrolysis – biochemical, ADP Hunter fluorescence, primary and confirmatory, confirmation (AID 624330); assay type: functional
T2 sequence (Q9H0H5 whole entry): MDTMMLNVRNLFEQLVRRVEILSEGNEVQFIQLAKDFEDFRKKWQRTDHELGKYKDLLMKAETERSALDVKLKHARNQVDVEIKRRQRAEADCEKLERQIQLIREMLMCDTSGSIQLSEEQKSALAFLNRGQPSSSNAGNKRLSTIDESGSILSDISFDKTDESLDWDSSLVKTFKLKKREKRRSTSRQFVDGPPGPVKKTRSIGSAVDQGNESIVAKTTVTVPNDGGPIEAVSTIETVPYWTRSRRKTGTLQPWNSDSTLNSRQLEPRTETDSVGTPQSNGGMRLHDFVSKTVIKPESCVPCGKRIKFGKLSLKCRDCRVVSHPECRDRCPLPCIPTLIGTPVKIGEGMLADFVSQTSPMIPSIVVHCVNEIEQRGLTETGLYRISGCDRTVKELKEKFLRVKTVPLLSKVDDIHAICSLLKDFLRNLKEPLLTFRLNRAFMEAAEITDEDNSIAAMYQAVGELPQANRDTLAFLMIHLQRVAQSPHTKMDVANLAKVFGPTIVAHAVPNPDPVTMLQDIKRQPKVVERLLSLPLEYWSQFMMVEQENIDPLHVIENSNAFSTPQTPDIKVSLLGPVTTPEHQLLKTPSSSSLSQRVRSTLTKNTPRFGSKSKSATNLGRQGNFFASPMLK

Fatty acid synthase [5] = target: T3, Fatty acid synthase (Homo sapiens, UniProt P49327); experiment: inhibition of human FAS-TE enzyme activity – biochemical, endpoint fluorescence intensity, uHTS hits, dose response (AID 624327); assay type: functional;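 further: fluorescence from hydrolysis of an O-methyl fluorescein acyl ester substrate by the enzyme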
Fatty acid synthase [6] = target: T3, Fatty acid synthase; experiment: inhibition of human FAS-TE enzyme activity – biochemical, kinetic fluorescence intensity, dose response (AID 624326); assay type: functional;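 further: rate of fluorescence rise from hydrolysis of a fluorogenic O-methyl fluorescein ester substrate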
Cytochrome P450 1A2 = target: T4, Cytochrome P450 1A2 (Homo sapiens, UniProt P05177);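 further: PubChem cytochrome P450 panel assay, CYP1A2 panel member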
T4 sequence (P05177 whole entry): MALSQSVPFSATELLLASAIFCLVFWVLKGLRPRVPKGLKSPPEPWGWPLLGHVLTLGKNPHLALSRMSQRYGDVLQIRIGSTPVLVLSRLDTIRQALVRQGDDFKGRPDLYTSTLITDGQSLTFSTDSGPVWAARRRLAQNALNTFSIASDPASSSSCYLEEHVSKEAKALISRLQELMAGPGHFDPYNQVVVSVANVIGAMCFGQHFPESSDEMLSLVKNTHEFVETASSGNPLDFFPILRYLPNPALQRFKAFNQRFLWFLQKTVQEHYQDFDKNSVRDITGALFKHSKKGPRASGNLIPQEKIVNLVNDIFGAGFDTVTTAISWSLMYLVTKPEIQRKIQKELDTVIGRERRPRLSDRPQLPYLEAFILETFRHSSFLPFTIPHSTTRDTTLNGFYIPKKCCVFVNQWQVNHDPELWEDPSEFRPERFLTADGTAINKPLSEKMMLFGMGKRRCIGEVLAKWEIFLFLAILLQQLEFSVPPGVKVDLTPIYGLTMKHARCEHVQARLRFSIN

Cytochrome P450 3A4 = Cytochrome P450 3A4 (Homo sapiens, UniProt P08684);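 further: CYP3A4 tested as one member of a cytochrome P450 panel screen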
[7] = viability loss in THP-1 monocytes – THP-1 cells, cytotoxicity control for Vif-APOBEC3G degradation inhibitor project, dose response (AID 1117359); assay type: functional; settings: THP-1
[8] = target: T5, Short transient receptor potential channel 4 (Mus musculus, UniProt Q9QUQ5); experiment: block of DAMGO-driven TRPC4 calcium entry – cell-based, HEK293 TRPC4/mu-opioid, Fluo-4 calcium, dose response (AID 434942); assay type: functional;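 further: potency of inhibitors blocking the TRPC4 calcium response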
T5 sequence (Q9QUQ5 whole entry): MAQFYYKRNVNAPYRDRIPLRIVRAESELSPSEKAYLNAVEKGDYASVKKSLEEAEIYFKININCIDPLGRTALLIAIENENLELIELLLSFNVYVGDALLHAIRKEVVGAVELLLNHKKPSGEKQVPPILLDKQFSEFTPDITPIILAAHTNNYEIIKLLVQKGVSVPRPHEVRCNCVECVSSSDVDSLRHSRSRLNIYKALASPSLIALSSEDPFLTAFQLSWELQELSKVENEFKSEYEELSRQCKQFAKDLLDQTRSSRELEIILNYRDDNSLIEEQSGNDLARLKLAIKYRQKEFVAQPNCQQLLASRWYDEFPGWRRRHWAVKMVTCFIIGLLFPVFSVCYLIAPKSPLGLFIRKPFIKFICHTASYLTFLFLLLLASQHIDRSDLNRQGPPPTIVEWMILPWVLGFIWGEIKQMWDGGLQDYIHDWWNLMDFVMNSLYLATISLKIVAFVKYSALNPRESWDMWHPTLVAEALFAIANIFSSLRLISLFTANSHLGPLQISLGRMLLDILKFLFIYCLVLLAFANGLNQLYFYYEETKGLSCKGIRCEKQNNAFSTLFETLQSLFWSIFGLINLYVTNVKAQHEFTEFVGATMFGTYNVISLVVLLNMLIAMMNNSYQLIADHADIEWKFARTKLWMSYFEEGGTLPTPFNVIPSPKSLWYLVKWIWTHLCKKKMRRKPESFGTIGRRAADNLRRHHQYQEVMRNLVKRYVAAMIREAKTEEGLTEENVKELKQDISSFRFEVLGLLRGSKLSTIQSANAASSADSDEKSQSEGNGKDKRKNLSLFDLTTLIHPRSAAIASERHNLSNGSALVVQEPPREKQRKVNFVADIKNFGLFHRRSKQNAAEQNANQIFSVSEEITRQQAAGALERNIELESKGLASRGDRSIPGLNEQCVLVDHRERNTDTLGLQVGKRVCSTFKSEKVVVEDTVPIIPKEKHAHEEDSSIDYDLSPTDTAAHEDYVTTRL

[9] = blockers of HIV-1 envelope-mediated cell-cell fusion – cherry-pick, dose response (AID 652057); assay type: functional, cell-based
[10] = blockers of HIV-1 ZM109 envelope-driven cell-cell fusion – HeLa effector, CEM target cells, luciferase, cherry-pick, dose response (AID 652058); assay type: functional, cell-based;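 further: luciferase signal from HIV-1 Env mediated cell-cell fusion of effector and target cells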
[11] = HIV-1 AD8 envelope cell-cell fusion blockers – cherry-pick, dose response (AID 652062); assay type: functional, cell-based;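 further: luciferase signal from cell-cell fusion driven by HIV-1 clade B AD8 Env; potency is for inhibitors of fusion seen as a drop in luminescence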

T3 sequence (P49327 whole entry): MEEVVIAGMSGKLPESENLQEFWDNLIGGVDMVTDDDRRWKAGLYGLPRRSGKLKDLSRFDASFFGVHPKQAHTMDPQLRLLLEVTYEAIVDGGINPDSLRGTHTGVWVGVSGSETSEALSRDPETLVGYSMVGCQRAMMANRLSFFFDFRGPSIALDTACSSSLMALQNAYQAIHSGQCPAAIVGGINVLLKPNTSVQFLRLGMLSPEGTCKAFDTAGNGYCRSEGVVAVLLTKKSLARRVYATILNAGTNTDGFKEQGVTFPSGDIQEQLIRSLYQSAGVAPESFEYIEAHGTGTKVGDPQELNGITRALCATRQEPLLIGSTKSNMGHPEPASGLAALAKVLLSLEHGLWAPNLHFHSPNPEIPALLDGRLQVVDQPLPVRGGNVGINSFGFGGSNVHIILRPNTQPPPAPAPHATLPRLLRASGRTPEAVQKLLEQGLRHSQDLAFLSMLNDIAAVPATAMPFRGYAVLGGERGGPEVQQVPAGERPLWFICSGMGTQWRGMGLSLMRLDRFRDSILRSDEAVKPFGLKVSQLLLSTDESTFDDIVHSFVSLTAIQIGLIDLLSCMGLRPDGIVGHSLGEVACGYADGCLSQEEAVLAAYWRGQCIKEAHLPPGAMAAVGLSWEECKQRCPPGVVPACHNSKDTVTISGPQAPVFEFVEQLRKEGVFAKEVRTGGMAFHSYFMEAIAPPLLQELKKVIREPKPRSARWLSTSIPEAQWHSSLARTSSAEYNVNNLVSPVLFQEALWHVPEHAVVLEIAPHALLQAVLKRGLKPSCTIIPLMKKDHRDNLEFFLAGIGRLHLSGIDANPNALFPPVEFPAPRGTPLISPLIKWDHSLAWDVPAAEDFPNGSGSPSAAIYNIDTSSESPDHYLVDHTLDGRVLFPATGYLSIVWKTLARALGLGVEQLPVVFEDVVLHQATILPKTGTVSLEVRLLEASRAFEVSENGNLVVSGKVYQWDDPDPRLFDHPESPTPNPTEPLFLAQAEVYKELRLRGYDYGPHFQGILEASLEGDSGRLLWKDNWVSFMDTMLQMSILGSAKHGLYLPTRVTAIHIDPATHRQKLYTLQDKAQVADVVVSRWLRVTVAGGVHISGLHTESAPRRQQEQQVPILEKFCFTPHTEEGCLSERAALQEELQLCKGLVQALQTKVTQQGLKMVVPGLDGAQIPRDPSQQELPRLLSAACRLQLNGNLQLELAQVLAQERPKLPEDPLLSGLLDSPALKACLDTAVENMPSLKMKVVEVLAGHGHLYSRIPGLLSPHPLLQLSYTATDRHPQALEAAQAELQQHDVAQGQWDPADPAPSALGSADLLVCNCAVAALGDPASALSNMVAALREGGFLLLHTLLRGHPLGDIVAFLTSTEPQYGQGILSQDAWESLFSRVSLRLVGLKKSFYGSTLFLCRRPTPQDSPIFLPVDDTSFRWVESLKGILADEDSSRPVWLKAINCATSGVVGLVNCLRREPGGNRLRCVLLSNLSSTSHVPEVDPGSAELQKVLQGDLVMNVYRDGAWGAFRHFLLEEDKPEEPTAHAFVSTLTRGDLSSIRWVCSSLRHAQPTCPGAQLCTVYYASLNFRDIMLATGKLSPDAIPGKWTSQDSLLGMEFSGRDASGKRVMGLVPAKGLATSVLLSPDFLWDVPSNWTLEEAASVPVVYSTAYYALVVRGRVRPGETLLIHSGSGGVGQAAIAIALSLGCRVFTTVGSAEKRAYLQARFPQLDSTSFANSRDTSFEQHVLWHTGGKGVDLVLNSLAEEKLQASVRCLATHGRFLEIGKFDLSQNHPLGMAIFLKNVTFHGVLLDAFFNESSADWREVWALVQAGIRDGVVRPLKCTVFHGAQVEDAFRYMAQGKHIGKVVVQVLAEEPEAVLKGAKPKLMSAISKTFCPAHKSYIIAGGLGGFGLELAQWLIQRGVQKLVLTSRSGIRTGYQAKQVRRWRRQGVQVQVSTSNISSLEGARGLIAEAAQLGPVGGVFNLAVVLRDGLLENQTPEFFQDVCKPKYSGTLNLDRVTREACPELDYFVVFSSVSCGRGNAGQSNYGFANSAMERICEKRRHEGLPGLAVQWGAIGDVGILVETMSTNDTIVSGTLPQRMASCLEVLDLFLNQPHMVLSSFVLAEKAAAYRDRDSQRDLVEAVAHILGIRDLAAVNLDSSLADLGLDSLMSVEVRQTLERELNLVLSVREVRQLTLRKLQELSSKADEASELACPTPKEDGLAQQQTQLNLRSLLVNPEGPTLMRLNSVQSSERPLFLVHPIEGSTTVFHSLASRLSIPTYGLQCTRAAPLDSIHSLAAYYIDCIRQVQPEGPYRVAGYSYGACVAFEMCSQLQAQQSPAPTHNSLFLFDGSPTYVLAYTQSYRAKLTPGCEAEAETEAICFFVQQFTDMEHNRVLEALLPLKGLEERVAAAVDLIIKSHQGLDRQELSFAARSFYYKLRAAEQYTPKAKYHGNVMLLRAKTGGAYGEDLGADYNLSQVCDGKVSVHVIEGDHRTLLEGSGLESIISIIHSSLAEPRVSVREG
T1 sequence (P11940 whole entry, the tested form may be a part): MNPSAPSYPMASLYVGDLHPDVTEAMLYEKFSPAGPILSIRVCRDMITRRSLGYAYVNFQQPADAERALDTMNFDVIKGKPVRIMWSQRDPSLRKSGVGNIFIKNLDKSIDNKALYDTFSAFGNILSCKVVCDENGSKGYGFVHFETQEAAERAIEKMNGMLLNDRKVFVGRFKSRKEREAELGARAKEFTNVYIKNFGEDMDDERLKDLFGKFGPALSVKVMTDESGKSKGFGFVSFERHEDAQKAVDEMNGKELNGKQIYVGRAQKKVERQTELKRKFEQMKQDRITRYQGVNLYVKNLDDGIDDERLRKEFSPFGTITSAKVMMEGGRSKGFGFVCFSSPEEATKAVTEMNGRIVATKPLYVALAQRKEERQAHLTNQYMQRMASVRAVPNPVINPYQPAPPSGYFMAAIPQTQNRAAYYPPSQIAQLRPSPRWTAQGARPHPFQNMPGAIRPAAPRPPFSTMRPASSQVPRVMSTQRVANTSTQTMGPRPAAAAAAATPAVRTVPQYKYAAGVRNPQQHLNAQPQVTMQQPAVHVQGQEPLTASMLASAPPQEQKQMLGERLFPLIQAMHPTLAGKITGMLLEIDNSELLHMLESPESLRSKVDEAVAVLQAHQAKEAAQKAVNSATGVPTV
Sequence of Cytochrome P450 3A4 (P08684 whole entry): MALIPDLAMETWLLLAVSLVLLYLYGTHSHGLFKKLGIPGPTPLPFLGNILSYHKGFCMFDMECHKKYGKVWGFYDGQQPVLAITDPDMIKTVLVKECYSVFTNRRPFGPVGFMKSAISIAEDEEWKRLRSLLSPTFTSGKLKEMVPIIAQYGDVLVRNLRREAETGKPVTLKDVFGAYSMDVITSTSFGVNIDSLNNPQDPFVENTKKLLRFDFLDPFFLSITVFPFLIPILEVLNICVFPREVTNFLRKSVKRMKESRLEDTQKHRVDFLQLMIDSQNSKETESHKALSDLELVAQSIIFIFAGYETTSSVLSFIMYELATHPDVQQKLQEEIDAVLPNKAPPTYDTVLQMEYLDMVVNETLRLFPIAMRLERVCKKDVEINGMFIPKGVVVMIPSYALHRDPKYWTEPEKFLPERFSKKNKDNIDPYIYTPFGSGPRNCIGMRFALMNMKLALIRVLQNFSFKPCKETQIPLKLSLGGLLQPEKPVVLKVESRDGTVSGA
Sequence of Genome polyprotein (P29990 2492-3391 limits assumed): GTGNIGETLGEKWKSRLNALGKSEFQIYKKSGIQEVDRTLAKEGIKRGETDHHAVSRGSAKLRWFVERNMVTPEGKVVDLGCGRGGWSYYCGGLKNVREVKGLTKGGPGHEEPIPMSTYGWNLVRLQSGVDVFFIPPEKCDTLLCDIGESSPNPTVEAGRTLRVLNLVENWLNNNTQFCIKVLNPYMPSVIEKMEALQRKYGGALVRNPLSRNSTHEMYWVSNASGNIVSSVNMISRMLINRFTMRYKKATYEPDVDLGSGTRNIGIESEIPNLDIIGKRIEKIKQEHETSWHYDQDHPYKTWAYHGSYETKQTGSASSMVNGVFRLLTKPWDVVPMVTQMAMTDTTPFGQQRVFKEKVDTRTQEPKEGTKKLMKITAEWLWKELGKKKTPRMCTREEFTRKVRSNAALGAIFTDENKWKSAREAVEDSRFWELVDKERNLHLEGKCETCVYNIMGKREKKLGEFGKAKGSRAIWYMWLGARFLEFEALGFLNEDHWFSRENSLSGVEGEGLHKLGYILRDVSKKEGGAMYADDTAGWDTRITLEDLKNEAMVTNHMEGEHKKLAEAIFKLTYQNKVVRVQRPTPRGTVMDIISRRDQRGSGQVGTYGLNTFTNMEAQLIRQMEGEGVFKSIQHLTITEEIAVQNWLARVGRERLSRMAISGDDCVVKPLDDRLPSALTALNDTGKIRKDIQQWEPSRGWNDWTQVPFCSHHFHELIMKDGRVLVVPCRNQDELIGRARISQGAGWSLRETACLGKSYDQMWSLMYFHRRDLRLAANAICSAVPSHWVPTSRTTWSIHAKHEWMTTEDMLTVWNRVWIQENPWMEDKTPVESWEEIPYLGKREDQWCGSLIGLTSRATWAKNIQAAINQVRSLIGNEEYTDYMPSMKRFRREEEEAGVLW

SMILES: Cc1ccc(-c2noc(CN(C(=O)C(c3ccccc3)c3ccccc3)C(C)C)n2)cc1
- EC50 [1]: 5.14 µM (active)

SMILES: COc1cccc(/C=C2\C(=O)C(=O)c3ccccc32)c1
- IC50 (Genome polyprotein): 12.9 µM (active)
- IC50 [2]: > 66 µM (inactive)
- IC50 [3]: > 66 µM (inactive)
- IC50 [4]: 47.3 µM (active)

SMILES: COc1ccc(N2CCN(C(=O)CC(NC(N)=O)c3cccc(Oc4ccccc4)c3)CC2)cc1 (stereo unspecified)
- EC50 [1]: 13.7 µM (active)

SMILES: Cc1cc(C)c2c(N)c(C(=O)NCC3CCCCC3)sc2n1
- IC50 [2]: > 66 µM (inactive)
- IC50 [3]: > 66 µM (inactive)

SMILES: COC(=O)C(CCCCNC(=O)c1ccc([N+](=O)[O-])cc1)NC(=O)c1ccc([N+](=O)[O-])cc1 (stereo unspecified)
- IC50 (Fatty acid synthase [5]): 33.6 µM (inactive)
- IC50 (Fatty acid synthase [6]): 55.8 µM (inactive)

SMILES: CCN(CC)CCSC(=O)C(c1ccccc1)c1ccccc1
- IC50 [2]: > 66 µM (inactive)
- IC50 [3]: > 66 µM (inactive)

SMILES: CC(C)c1ccc(CN(C(=O)C2COc3ccccc3O2)C2CCS(=O)(=O)C2)cc1 (stereo unspecified)
- EC50 [1]: 6.86 µM (active)
- AC50 (Cytochrome P450 1A2): 25.1 µM (inconclusive)
- AC50 (Cytochrome P450 3A4): 28.2 µM (inconclusive)

SMILES: O=C(CC1NCCNC1=O)Nc1ccc(Oc2ccccc2)cc1 (stereo unspecified)
- EC50 [1]: 8.83 µM (active)

SMILES: COC(=O)N1C(=O)[C@](Cc2ccccc2)(c2ccccc2)N1C(=O)OC
- IC50 (Fatty acid synthase [5]): 5.18 µM (active)
- IC50 (Fatty acid synthase [6]): 4.85 µM (active)

SMILES: Cc1nn(Cc2ccc([N+](=O)[O-])cc2)c(=O)n1N(C)c1ncc(C(F)(F)F)cc1Cl
- IC50 (Fatty acid synthase [5]): 4.91 µM (active)
- IC50 (Fatty acid synthase [6]): 2.51 µM (active)

SMILES: CN1C(C(=O)NCc2cccc(Br)c2)CC2Cn3c(nc4cc(Cl)c(Cl)cc43)C21 (stereo unspecified)
- IC50 (Fatty acid synthase [5]): 15.2 µM (active)
- IC50 (Fatty acid synthase [6]): 10.3 µM (active)

SMILES: CC1CCN(c2ccc([N+](=O)[O-])c(SCCO)c2)CC1
- CC50 [7]: > 40 µM (active)

SMILES: CC[C@]1(C(=O)OC)[C@H]2C(=O)N(Cc3ccccc3)C(=O)[C@H]2[C@H]2CN=C(SCC(=O)c3ccccc3)N21
- IC50 [2]: > 66 µM (inactive)
- IC50 [3]: > 66 µM (inactive)

SMILES: O=C(COc1ccc(Cl)cc1)Nc1ccc(C(=O)O)cc1NC(=O)COc1ccc(Cl)cc1
- EC50 [8]: 1.3 nM (active)
- IC50 (Fatty acid synthase [5]): 15.3 µM (active)
- IC50 (Fatty acid synthase [6]): 7.29 µM (active)

SMILES: C[C@H]1CN([C@@H](C)CO)S(=O)(=O)c2ccc(Br)cc2O[C@H]1CN(C)Cc1ccccc1
- AC50 [9]: 23.5 µM (active)
- AC50 [10]: 20.6 µM (active)
- AC50 [11]: 33.4 µM (active)

SMILES: O=C(c1cccc(C(F)(F)F)c1)C1CCCN(C(=O)CCCN2CCCC2=O)C1 (stereo unspecified)
- CC50 [7]: > 40 µM (active)

SMILES: COc1ccc(NC(=O)Nc2ccc3c(c2)C(=O)N([C@@H](C)CO)C[C@H](C)[C@H](CN(C)S(=O)(=O)c2ccc(C)cc2)O3)cc1
- AC50 [9]: 6.5 µM (active)
- AC50 [10]: 17.5 µM (active)
- AC50 [11]: 23 µM (active)

SMILES: c1ccc2c3c([nH]c2c1)CNCC3 [TRYPTOLINE]
- CC50 [7]: 28.7 µM (active)
